We go through one molecule from patent US5654008A, “Preparation of biodegradable microparticles containing a biologically active agent” (Alkermes Controlled Therapeutics Inc. II, priority 1996, dated 1997).

For `C#C[C@]1(O)CC[C@H]2[C@@H]3CCC4=CC(=O)CC[C@@H]4[C@H]3CC[C@@]21C` [NET, norethindrone], the “NET release rate, effect of quench volume” value (0.25 to 1.5 L quench liquid per gram, possible minimum at 1 L) was “varies slightly with a possible minimum”. For the same molecule, the “in vitro release, effect of ethyl acetate content of quench liquid” value (at extreme ethyl acetate contents) is listed as “quicker release”.
